Earlier results as cited in PMC3230568 (International Journal of Nanomedicine, 2011).

Key:
[1] = target: full-length p53 (Homo sapiens, UniProt P04637); settings: single-molecule AFS
[2] = azurin
[3] = test system: NTD of p53; settings: biological as well as computational studies
[4] = test system: cancer cells; settings: azurin, relative to normal cells
[5] = test system: cancer cells; settings: azurin
[6] = test system: p53; settings: azurin

Sequence of full-length p53 (P04637 whole entry): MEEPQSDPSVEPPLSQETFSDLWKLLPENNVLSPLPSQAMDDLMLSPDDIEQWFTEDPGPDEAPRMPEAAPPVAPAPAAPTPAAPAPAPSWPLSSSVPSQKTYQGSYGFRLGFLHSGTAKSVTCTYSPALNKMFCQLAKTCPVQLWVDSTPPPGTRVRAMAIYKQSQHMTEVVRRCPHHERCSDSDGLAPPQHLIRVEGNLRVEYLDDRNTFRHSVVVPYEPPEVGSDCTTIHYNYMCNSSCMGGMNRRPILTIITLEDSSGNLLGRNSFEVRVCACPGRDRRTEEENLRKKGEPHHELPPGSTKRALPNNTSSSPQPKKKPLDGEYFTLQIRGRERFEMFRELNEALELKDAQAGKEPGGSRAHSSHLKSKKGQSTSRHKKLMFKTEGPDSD

Substance: azurin: copper-containing, electron-transfer protein secreted by Pseudomonas aeruginosa; 128-amino acid
- complex formation with full-length p53 [1]: a stable complex is formed
- anticancer activity in vivo [2]: significant anticancer activity
- binding to p53 NTD [3]: binds to either the NTD of p53
- preferential entry into cancer cells [4]: preferentially enters cancer relative to normal cells
- anticancer activity in vitro [5]: significant anticancer activity in vitro
- effect on p53 level [6]: stabilization and subsequent increase in intracellular concentration of p53
